Results reported in patent US11878972B2, “Treatment of neurological disorders” (TORQUR AG, priority 2016, dated 2024).

Columns and labels:
[1] = tested on: LC3-II in STHdh^Q7/Q7 and STHdh^Q111/Q111 cells; test: Induction of autophagy in STHdh cells (LC3-II, western blot); assay type: cell-based, mouse; conditions: striatal cells, 4 hours, presence and absence of Bafilomycin A
Description: In order to test whether Cpd. 3 and Cpd. 8 inhibit mTOR signaling and induce autophagy in neuronal cell models of HD, treatment of STHdh^Q111/Q111 and STHdh^Q7/Q7 cells was employed. […] Cells were seeded in 10 cm dishes. When cells were about 80% confluent, cells were differentiated and treated with compounds at the same time. Cells were treated with Cpd. 3 (200 nM, 400 nM, 1230 nM), Cpd. […] At the end of incubation time cells were washed with cold PBS buffer and lysed with 200 μl of RIPA buffer supplemented with 4% Complete protease inhibitor (Roche, Switzerland) and 10% PhosStop (Roche, Switzerland). After 30 min of incubation on ice, lysates were vortexed, centrifuged (20 min, 4° C., 16000 rpm) and supernatants were collected. Protein concentration was determined as described above. 30 μg of protein per sample was analyzed by western blot as described above using the following primary antibodies:
In order to detect levels of LC3-II, an autophagy marker in autophagosomes, cell treatment was performed in the presence and absence of Bafilomycin A, an inhibitor of autophagosome degradation. Thus compounds lead to accumulation of LC3-II levels when autophagy is induced. Cpd. 3 (FIG. 6C) and Cpd. […] For Cpd. […] Cpd.

[2] = tested on: R6/2 mice (mutHTT aggregates in the striatum); test: Immunohistochemistry of mutHTT aggregates in striata of long-term treated R6/2 mice; assay type: in vivo, mouse; conditions: p.o. 11.5 weeks, Cpd. 3 65 mg/kg, Cpd. 8 16.25 mg/kg, versus vehicle controls
Text: An in vivo model of Huntington's disease was used to evaluate the efficacy of Cpd. 3 and cpd. 8 in reducing mutHTT aggregate formation in the striatum. R6/2 mice are a B6CBA-Tg(HDexon1)62Gbp/3J Huntington's disease mouse model expressing exon 1 of the human huntingtin gene with an extension of 160 f 5 CAG repeats. Mice have a severe phenotype that develops between 4 and 12 weeks.
Treatment groups were established from genotype and measurement of weight, rotarod performance and litter. They were distributed equally over the four groups, each group contained 12 animals. R6/2 mice and their wt counterparts were dosed in the following treatment groups: 1. Wt, vehicle (20% SBECD in water, pH 3); 2. R6/2 vehicle (20% SBECD in water, pH 3); 3. R6/2 Cpd. 3 (65 mg/kg); 4. R6/2 Cpd.8 (16.25 mg/kg). Per oral dosing was performed for 6 days with a following drug holiday of 1 day for a total of 11.5 weeks.
To detect mutHTT aggregates, immunostaining of striata was performed. […]
Images were acquired using a Zeiss Axioplan microscope (Plan-NEOFLUAR×40/0.75 objective, AxioCam MRc) and Axiovision 4.8 software (Carl Zeiss Microscopy GmbH, Jena, Germany). Per animal three subsequent sections of the striatum were analyzed, 4 animals were analysed The EM48 positive structures were analyzed with the ImageJ built in particle analysis, with a fixed threshold for all pictures (ImageJ 1.47v; NIH, Bethesda, MD, USA). […]

**Q.** For Nc1cc(C(F)F)c(-c2nc(N3C4CCC3COC4)nc(N3C4CCC3COC4)n2)cn1 [Compound 3, 5-(4-(3-oxa-8-azabicyclo[3.2.1]octan-8-yl)-6-(3-oxa-8-azabicyclo[3.2.1]octan-8-yl)-1,3,5-triazin-2-yl)-4-(difluoromethyl)pyridin-2-amine], which “autophagy (LC3-II levels)” value [1] is on record?
**A.** induced autophagy in striatal cells

**Q.** What about the “number of mutHTT aggregates counted in striata” value [2] of the same compound?
**A.** not changed
